Measurements: patent US7964732B2, “Substituted bicyclocarboxyamide compounds” (Pfizer Inc., priority 2006, dated 2011)

Key:
human VR1 [1] = biological target: T1, human VR1 (Homo sapiens, UniProt Q8NER1); assay: Determination of pA2 values against capsaicin stimulation (Ca2+ imaging, FLIPR TETRA, Schild analysis); type: cell-based; conditions: against capsaicin agonist dose-response
T1 construct: host or cells: cells that express human VR1 receptors (cell type not specified)
Protocol: pA2 values of antagonists against the capsaicin agonist dose-response were determined using a Ca^2+ imaging assay with cells expressing high levels of human VR1 (for explanation of theory behind pA2 determinations, see A Pharmacological Primer: Theory, Applications, and Methods 2nd edition by Terry P. Kenakin, pp. 102-108, Academic Press, New York, 2006). Cells that express high levels of VR1 were obtained by generation of a cell line from […] with heterologous expression of VR1 under control of an inducible promoter. Specifically, cells expressing human VR1 under the control of the human cytomegalovirus immediate-early (CMV) promoter and two tetracycline operator 2 (TetO2) sites were made using the T-REx System (Invitrogen, Carlsbad, Calif., USA). Details and methods concerning this system are published (Hum. Gene Ther. 9, pp. 1939-1950, 1998; Annu. Rev. Microbiol. 48, pp. 345-369, 1994; Mol. Biol. 169, pp. 707-721, 1983). VR1 was subcloned into the T-REx System pcDNA5/TO vector (Invitrogen Cat# V1033-20) which was transfected into the T-REx System […] cell line (Invitrogen Cat# R710-07) from which a stable cell line was established which express VR1 after induction by exposure to tetracycline or doxycycline (Hum. Gene Ther. 9, pp. 1939-1950, 1998; instructions that come with purchase of products noted above). […]
For assay preparation, cells expressing human VR1 as described above were plated in 96-well plates (Becton Dickinson [BD] poly-D-lysine coated 96-well plates, cat#356692) at 55,000 cells per well in culture media (described above) that also contains 1 ug/ml doxycycline. […] Changes in the fluorescence signal (λex=470-495 nm, λem=515-575 nm) were monitored throughout the experiment before agonist addition and for at least 2 min after agonist addition (enough time for the fluorescence response to reach and then decline from the absolute maximum, agonist-induced signal attained). […]

human VR1 [2] = biological target: T1, human VR1; assay: Human VR1 antagonist assay (Ca2+ imaging assay using human VR1 highly expressing cells); type: cell-based; conditions: intracellular Ca2+ imaging (fura-2)
Text: VR1 antagonistic activity can be determined by the Ca^2+ imaging assay using human VR1 highly expressing cells. The cells that highly express human VR1 receptors are obtainable from several different conventional methods. The one standard method is cloning from human Dorsal Root Ganglion (DRG) or kidney according to the methods such as described in the journal article; Nature, 389, pp 816-824, 1997. Alternatively VR1 receptors highly expressing human keratinocytes are also known and published in the journal article (Biochemical and Biophysical Research Communications, 291, pp 124-129, 2002). […] Furthermore, the method to up regulate human VR1 gene, which is usually a silent gene or don't produce detectable level of VR1 receptors, is also available to obtain propriety cells. Such genetic modification method was described in detail; Nat. Biotechnol., 19, pp 440-445, 2001.
The cells that express human VR1 receptors were maintained in culture flask at 37° C. in an environment containing 5% CO2 until use in the assay. The intracellular Ca^2+ imaging assay to determine VR1 antagonistic activities were done by following procedures.
The culture medium was removed from the flask and fura-2/AM fluorescent calcium indicator was added to the flask at a concentration of 5 μM in the medium. The flask was placed in CO2 incubator and incubated for 1 hour. Then the cells expressing the human VR1 receptors were detached from the flask follow by washing with phosphate buffer saline, PBS(−) and re-suspended in assay buffer. The 80 μl of aliquot of cell suspension (3.75×10^5 cells/ml) was added to the assay plate and the cells were spun down by centrifuge (950 rpm, 20° C., 3 minutes).
Compounds of the examples were tested in the Human VR1 antagonist assay described above.
The capsaicin-induced changes in the intracellular calcium concentration were monitored using FDSS 6000 (Hamamatsu Photonics, Japan), a fluorometric imaging system. The cell suspension in Krebs-Ringer HEPES (KRH) buffer (115 mM NaCl, 5.4 mM KCl, 1 mM MgSO4, 1.8 mM CaCl2, 11 mM D-Glucose, 25 mM HEPES, 0.96 mM Na2HPO4, pH 7.3) were pre-incubated with varying concentrations of the test compounds or KRH buffer (buffer control) for 15 minutes at room temperature under the dark condition. Then capsaicin solution, which gives 300 nM in assay mixture, was automatically added to the assay plate by the FDSS 6000.
The Acid-induced changes in the intracellular calcium concentration were monitored using FDSS 6000 (Hamamatsu Photonics, Japan), a fluorometric imaging system. The cell suspension in resting buffer (HBSS supplemented with 10 mM HEPES, pH 7.4) were pre-incubated with varying concentrations of the test compounds or resting buffer (buffer control) for 15 minutes at room temperature under the dark condition. The cells were automatically added the stimulating solution (HBSS supplemented with MES, final assay buffer pH5.8) by the FDSS 6000.
The monitoring of the changes in the fluorescence signals (λex=340 nm/380 nm, λem=510-520 nm) was initiated at 1 minute prior to the addition of capsaicin solution or acidic buffer and continued for 5 minute.

T1 sequence (Q8NER1 whole entry): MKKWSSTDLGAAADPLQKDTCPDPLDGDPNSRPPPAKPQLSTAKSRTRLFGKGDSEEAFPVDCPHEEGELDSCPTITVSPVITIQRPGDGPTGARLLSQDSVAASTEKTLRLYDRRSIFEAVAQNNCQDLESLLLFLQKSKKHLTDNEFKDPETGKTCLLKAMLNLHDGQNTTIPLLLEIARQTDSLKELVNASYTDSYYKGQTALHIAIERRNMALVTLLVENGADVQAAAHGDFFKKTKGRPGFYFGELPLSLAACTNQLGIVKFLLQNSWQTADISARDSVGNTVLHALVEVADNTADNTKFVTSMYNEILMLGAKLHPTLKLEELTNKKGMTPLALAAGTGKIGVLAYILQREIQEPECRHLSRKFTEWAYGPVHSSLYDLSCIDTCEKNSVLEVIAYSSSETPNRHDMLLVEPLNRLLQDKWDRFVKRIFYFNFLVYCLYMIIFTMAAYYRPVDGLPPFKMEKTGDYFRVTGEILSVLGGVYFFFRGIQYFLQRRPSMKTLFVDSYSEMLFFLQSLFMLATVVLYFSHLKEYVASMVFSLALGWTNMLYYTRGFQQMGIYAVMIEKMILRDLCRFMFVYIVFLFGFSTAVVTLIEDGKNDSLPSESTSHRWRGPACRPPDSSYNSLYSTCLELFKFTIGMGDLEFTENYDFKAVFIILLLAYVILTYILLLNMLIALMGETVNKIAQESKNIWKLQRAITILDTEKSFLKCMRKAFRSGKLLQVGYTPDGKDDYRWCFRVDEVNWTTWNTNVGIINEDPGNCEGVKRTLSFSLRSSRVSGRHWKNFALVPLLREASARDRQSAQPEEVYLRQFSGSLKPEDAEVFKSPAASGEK

| Structure (SMILES) | Kb (human VR1 [1]; pre-incubation 2 mins) [nM] | IC50 (human VR1 [2]) [nM] | Kb (human VR1 [1]; pre-incubation 30 mins) [nM] |
| --- | --- | --- | --- |
| Cc1c([C@@H](C)NC(=O)c2ccc3nc(C(C)(C)C(F)(F)F)ccc3c2)cnn1C [Example 1] | 1.74 | 25.2 | – |
| Cc1c([C@@H](C)NC(=O)c2ccc3nc(C(C)(C)C(F)(F)F)ccc3c2)cnn1CC(F)(F)F [Example 6, N-((1R)-1-(5-methyl-1-(2,2,2-trifluoroethyl)-1H-pyrazol-4-yl)ethyl)-2-(2,2,2-trifluoro-1,1-dimethylethyl)quinoline-6-carboxamide] | 1.86 | 26.6 | – |
| C[C@H](NC(=O)c1ccc2nc(C(C)(C)C(F)(F)F)ccc2c1)c1cnn(C)c1Cl [Example 18] | – | 18 | 5.25 |
| Cc1c(C(C)NC(=O)c2ccc3cc(C(C)(C)O)ccc3c2)cnn1C (centres unmarked) [Example 37, N-[1-(1,5-dimethyl-1H-pyrazol-4-yl)ethyl]-6-(1-hydroxy-1-methylethyl)-2-naphthamide] | – | 1000 | – |
| Oc1cc2c(cc1O)CN(C(=S)NCCc1ccc(Cl)cc1)CCC2 [capsazepin, reference compound] | – | 237 to 455 | – |
